Assay [1] has as its target T1, GLP-1R (Homo sapiens, UniProt P43220).
T1 construct: host or cells: HEK293
Put plainly: In vitro GLP-1R agonistic activity test (cAMP kit). In kind it is cell-based. The conditions noted are these: HEK293 host cell; without 1% HSA. On the procedure: The cell lines were constructed by Wuxi […] (Shanghai) Co., Ltd. See details in Table 1 below. [table] The test compounds were diluted at a 4-fold dilution factor in 10 points, starting from an initial concentration of 30 μM. […]

Assay [2] has as its target T2, GIPR (Homo sapiens, UniProt P48546).
T2 construct: host or cells: CHO
T2 sequence (P48546 22-466): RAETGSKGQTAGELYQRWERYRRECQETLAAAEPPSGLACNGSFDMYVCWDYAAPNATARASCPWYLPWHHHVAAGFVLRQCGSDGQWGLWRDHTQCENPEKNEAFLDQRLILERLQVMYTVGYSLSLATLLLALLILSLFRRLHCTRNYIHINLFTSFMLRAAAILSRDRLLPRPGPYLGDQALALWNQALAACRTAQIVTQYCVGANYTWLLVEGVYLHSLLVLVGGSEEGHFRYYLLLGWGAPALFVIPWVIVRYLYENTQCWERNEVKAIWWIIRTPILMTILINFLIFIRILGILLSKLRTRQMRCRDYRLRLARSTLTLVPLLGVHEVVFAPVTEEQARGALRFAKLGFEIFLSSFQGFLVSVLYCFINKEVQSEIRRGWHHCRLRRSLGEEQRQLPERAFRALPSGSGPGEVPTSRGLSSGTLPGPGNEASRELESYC
As to the kind of experiment: In vitro GIPR agonistic activity test (cAMP kit). The format is cell-based. Conditions: CHO host cell; without 1% HSA. The procedure: The cell lines were constructed by Wuxi […] (Shanghai) Co., Ltd. See details in Table 1 below. […] The test compounds were diluted at a 4-fold dilution factor in 10 points, starting from an initial concentration of 30 μM.

Assay [3] concerns mouse model of obesity. As to the kind of experiment: In vivo efficacy test in mouse model of obesity. Conditions: high-fat diet obese mice, SC Q3d for 22 days; 10 nmol/kg (Semaglutide 30 nmol/kg). An excerpt:
To study the weight-lowering effect of the series of polypeptides of the present application in animal model of obesity, and to compare them with the marketed counterparts, Tirzepatide and Semaglutide. Mouse model of obesity was obtained by induction with high-fat diet following the reference literature (MOLECULAR METABOLISM, 18 (2018), P3-14). The specific experimental procedure was as follows: the experimental mice were fed with high-fat diet (Research Diet D12492) for 13 weeks. […] These findings indicated the successful establishment of animal models. The test animals were divided into groups. An appropriate amount of the test samples were added into 20 mM sodium citrate buffer following the experimental protocol, and the mixture was vortexed at room temperature to obtain clear solutions of varying concentrations. The obtained solutions were frozen for further use. During the experiment, animals in the model group and the dosing group were administered by means of subcutaneous injection on the outer thighs. The dosing regimen was once every 3 days […]), for a total period of 22 days. Details were as follows. [table] […] After completing the entire dosing test cycle, the test mice were weighed, and the results were shown below.

The subject of assay [4] is Db/db (Lepr leptin receptor deficient) mice. Put plainly: In vivo efficacy test in mouse model of diabetes. The conditions noted are these: for Change rate of glycosylated hemoglobin: “−” indicates decrease. An excerpt:
To study the efficacy of the series of polypeptides of the present application in animal model of diabetes, and to compare them with the marketed counterpart Tirzepatide as reported in the literature (MOLECULAR METABOLISM, 18 (2018), P3-14). The glucose-lowering effect of Tirzepatide is much better than that of Semaglutide, and thus Semaglutide was not included in this experiment for comparison. Db/db (Lepr leptin receptor deficient) mice have typical clinical symptoms of diabetes such as extreme obesity, hyperphagia, thirst, and polyuria, and they are ideal animal model of type II diabetes. […] The test animals were divided into groups. An appropriate amount of the test samples were added into 20 mM sodium citrate buffer following the experimental protocol, and the mixture was vortexed at room temperature to obtain clear solutions of varying concentrations. The obtained solutions were frozen for further use. During the experiment, animals in the normal control group, the model group and the dosing group were administered by means of subcutaneous injection on the outer thighs. The dosing regimen was once a day (Qd), for a total period of 4 weeks. Details were as follows: [table] […] The fasting blood glucose level and the change rate of glycosylated hemoglobin level in the test mice were dynamically monitored during the experiment.

pEC50: −log10 of the molar value.

The record followed here is patent publication US20260055142A1, “PHARMACEUTICAL USE OF POLYPEPTIDE IN PREPARATION OF DRUGS FOR TREATING AND/OR PREVENTING DIABETES AND OBESITY AND RELATED DISEASES THEREOF” (GUANGDONG RAYNOVENT BIOTECH CO., LTD., priority 2022, published 2026).

T1 sequence (P43220 24-463, species assumed): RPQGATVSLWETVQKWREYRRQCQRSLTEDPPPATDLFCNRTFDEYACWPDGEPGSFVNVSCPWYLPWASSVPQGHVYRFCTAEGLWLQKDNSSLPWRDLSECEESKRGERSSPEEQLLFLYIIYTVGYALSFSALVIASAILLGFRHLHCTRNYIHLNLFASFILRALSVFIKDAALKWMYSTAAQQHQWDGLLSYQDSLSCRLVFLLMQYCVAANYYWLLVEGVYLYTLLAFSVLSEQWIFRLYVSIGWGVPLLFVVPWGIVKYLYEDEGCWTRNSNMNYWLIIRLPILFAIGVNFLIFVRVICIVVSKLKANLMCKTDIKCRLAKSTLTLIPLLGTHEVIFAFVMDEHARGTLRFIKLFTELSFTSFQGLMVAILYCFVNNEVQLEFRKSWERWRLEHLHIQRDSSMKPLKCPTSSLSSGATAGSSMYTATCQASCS

For `CC[C@H](C)[C@H](NC(=O)[C@H](CC(C)C)NC(=O)[C@H](Cc1c[nH]c2ccccc12)NC(=O)[C@H](C)NC(=O)[C@@H](NC(=O)[C@H](Cc1ccccc1)NC(=O)[C@H](C)NC(=O)[C@@H]1CCCCNC(=O)CN(C(=O)COCCOCCNC(=O)COCCOCCNC(=O)CC[C@H](NC(=O)CCCCCCCCCCCCCCCCCCC(=O)O)C(=O)O)CC(=O)NCCCC[C@H](NC(=O)[C@H](CCCCN)NC(=O)[C@H](CC(=O)O)NC(=O)[C@H](CC(C)C)NC(=O)C(C)(C)NC(=O)[C@@H](NC(=O)[C@H](CO)NC(=O)[C@H](Cc2ccc(O)cc2)NC(=O)[C@H](CC(=O)O)NC(=O)[C@H](CO)NC(=O)[C@@H](NC(=O)[C@H](Cc2ccccc2)NC(=O)[C@@H](NC(=O)CNC(=O)[C@H](CCC(=O)O)NC(=O)C(C)(C)NC(=O)[C@@H](N)Cc2ccc(O)cc2)[C@@H](C)O)[C@@H](C)O)[C@@H](C)CC)C(=O)N[C@@H](C)C(=O)N[C@@H](CCC(N)=O)C(=O)N1)C(C)C)C(=O)N[C@@H](C)C(=O)NCC(=O)NCC(=O)N1CCC[C@H]1C(=O)N[C@@H](CO)C(=O)N[C@@H](CO)C(=O)NCC(=O)N[C@@H](C)C(=O)N1CCC[C@H]1C(=O)N1CCC[C@H]1C(=O)N1CCC[C@H]1C(=O)N[C@@H](CO)C(N)=O` [WX-007], the pEC50 (usually −log10 of the EC50, conventionally taken in molar units) in assay [1] is 10.59; in assay [2] it was 9.40.
As to Tirzepatide, the Weight change rate in assay [3] is reported as −10.20%. Further, the Fasting blood glucose in assay [4] (Day 0, 5 nmol/kg SC Qd) is 26.7 ± 1.4 mmol/L; in assay [4] (Day 7, 5 nmol/kg SC Qd), 11.6 ± 1.4 mmol/L; in assay [4] (Day 14, 5 nmol/kg SC Qd), 12.6 ± 1.6 mmol/L; in assay [4] (Day 21, 5 nmol/kg SC Qd), 14.0 ± 1.4 mmol/L. Further, the “Change rate of glycosylated hemoglobin” value in assay [4] (Day 14, 5 nmol/kg SC Qd) is listed as −15.9 ± 5.4%; in assay [4] (Day 21, 5 nmol/kg SC Qd) it was −14.3 ± 4.9%; in assay [4] (Day 29, 5 nmol/kg SC Qd), −10.2 ± 5.7%.
